Data published in patent US7229987B2, “Multicyclic compounds for use as melanin concentrating hormone antagonists in the treatment of obesity and diabetes” (Eli Lilly and Company, priority 2002, dated 2007).
pKi: −log10 of the molar value.

How the values were obtained:
human MCHR1 [1] = target: T1, human MCHR1 (Homo sapiens, UniProt Q99705); test: 125I-MCH competitive binding assay (SPA) with clone 43 membranes; conditions: competition with 125I-MCH, clone 43 membranes (AV12 cells expressing human MCHR1); Ki from IC50 by Cheng-Prusoff; tested in duplicate
T1 construct: The full-length cDNA for human MCHR1 was cloned from a human adult brain cDNA library; expressed in transfected cells; host or cells: AV12 cells previously transfected with Gα15
Description: (§1) The full-length cDNA for human MCHR1 was cloned from a human adult brain cDNA library (Edge Biosystems, Cat. 38356) by standard polymerase chain reaction (PCR) methodology employing the following primers: sense, 5′-GCCACCATGGACCT GGAAGCCTCGCTGC-3′; anti-sense, 5′-[…]-3′.
(§2) In order to generate cell lines stably expressing MCHR1, the insert was then subcloned into the Xba I and Not I sites of pcDNA(+)-3.1-neomycin (Invitrogen). After purification by Qiagen Maxi-prep kit (QIAGEN, Inc.), the plasmid was transfected by Fugene 6 (Roche Applied Science) into AV12 cells that had been previously transfected with the promiscuous G protein Gα15. The transfected cells were selected by
(§3) Both the ^125I-MCH binding and functional GTPγ^35S binding assays employed membranes isolated from a clone designated as clone 43. Typically, cells from 20 confluent T225 flasks were processed by washing the monolayers in cold phosphate-buffered saline (PBS), scraping the cells into same and re-suspending the cell pellet in 35 ml of 250 mM Sucrose, 50 mM HEPES, pH 7.5, 1 mM MgCl2, 24 μg/ml DNase I, and protease inhibitors (1 Complete® tablet, per 50 ml of buffer prepared, Roche Diagnostics). After incubation on ice for 5 min, cells were disrupted with 20–25 strokes of a Teflon/Glass homogenizer attached to an overhead motorized stirrer, and the homogenate was centrifuged at 40,000 rpm in Beckman Type 70.1 Ti rotor. The pellets were re-suspended in 250 mM Sucrose, 50 mM HEPES, pH 7.5, 1.5 mM CaCl2, 1 mM MgSO4 and protease inhibitors by Teflon/Glass homogenization to achieve a protein concentration of ˜3–5 mg/ml (Pierce BCA assay with Bovine serum albumin as standard).
Aliquots were stored at −70° C. Binding of compounds to MCHR1 was assessed in a competitive binding assay employing ^125I-MCH, compound and clone 43 membranes. Briefly, assays are carried out in 96-well Costar 3632 white opaque plates in a total volume of 200 μl containing 25 mM HEPES, pH 7.5, 10 mM CaCl2, 2 mg/ml bovine serum albumin, 0.5% dimethyl sulfoxide (DMSO), 4 μg of clone 43 membranes, […] ^125I-MCH (NEN), 1.0 mg of wheat germ agglutinin scintillation proximity assay beads (WGA-SPA beads, Amersham) and a graded dose of test compound. Non-specific binding is assessed in the presence of 1 μM unlabeled MCH. Bound ^125I-MCH is determined by placing sealed plates in a Microbeta Trilux (Wallac) and counting after a 5 hr delay.
IC50 values (defined as the concentration of test compound required to reduce specific binding of ^125I-MCH by 50%) are determined by fitting the concentration-response data to a 4-parameter model (max response, min response, Hill coefficient, IC50) using Excel. Ki values are calculated from IC50 values using the Cheng-Prusoff approximation as described by Cheng et al. (Relationship between the inhibition constant (Ki) and the concentration of inhibitor which causes 50% inhibition (IC50) of an enzymatic reaction, Biochem. Pharmacol., 22: 3099–3108 (1973)). The Kd for ^125I-MCH is determined independently from a saturation binding isotherm.

human MCHR1 [2] = target: T1, human MCHR1; test: Inhibition of MCH-stimulated GTPγ35S binding to clone 43 membranes (functional antagonism); assay type: biochemical; conditions: inhibition of GTPγ35S binding stimulated by 40 nM MCH (about EC90), Kb from IC50 by modified Cheng-Prusoff (Leff and Dougal), tested in duplicate
Description: as §1, §2, §3
Functional antagonism of MCH activity is assessed by measuring the ability of test compound to inhibit MCH-stimulated binding of GTPγ^35S to clone 43 membranes. Briefly, assays are carried out in Costar 3632 white opaque plates in a total volume of 200 μl containing 25 mM Hepes, pH 7.5, 5 mM MgCl2, 10 μg/ml saponin, 100 mM NaCl, 3 μM GDP, 0.3 nM GTPγ^35S, 40 nM MCH (approximately equal to EC90), 20 μg of clone 43 membranes, 1.0 mg of wheat germ agglutinin scintillation proximity assay beads (WGA-SPA beads, Amersham) and a graded dose of test compound. The plates are sealed and left for 16–18 hrs at 4° C. After a 1 hr delay to allow plates to equilibrate to ambient temperature, bound GTPγ^35S is determined by counting in a Microbeta Trilux (Wallac).
IC50 values (defined as the concentration of test compound required to reduce MCH-stimulated GTPγ^35S binding by 50%) are determined by fitting the concentration-response data to a 4-parameter model (max response, min response, Hill coefficient, IC50) using Excel. Kb values are calculated from IC50 values using a modification of the Cheng-Prusoff approximation as described by Leff and Dougal (Further concerns over Cheng-Prusoff analysis, Trends Pharmacol. Sci. 14: 110–112 (1993)) after verifying competitive antagonism by Schild analysis. The EC50 for MCH alone is determined independently. The MCHR1 binding and functional activities of 24 compounds in the oxadiazole series (tested in duplicate) are shown in Table 1

T1 sequence (Q99705 whole entry): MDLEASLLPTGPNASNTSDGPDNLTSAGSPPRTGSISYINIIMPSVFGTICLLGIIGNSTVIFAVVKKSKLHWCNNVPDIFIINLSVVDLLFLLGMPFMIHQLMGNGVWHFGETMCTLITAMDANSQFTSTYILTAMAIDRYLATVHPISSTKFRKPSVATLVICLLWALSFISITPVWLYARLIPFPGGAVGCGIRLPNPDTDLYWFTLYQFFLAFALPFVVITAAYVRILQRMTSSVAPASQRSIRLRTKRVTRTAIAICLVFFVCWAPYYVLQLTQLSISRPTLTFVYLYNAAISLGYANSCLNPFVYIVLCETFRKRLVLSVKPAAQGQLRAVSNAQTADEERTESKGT

Structure (SMILES)	pKi (human MCHR1 [1])	Kb (human MCHR1 [2])	melting point
c1ccc(OCCSCc2ncc(-c3ccc(OCCN4CCCCC4)cc3)o2)cc1	7.94	7.3 nM	
c1ccc(OCCSCc2nnc(-c3ccc(OCCN4CCCCC4)cc3)o2)cc1 [drawing 45]	8.04	19.8 nM	
CN1CCC[C@@H]1CCOc1ccc(-c2nnc(CSCCOc3ccccc3)o2)cc1	7.89	39.6 nM	
c1ccc(OCCSCc2ncc(-c3ccc(OCCN4CCCC4)cc3)o2)cc1	8.24	12 nM	
O=C(NCCN1CCCC1)Nc1ccc(-c2nnc(CSCCOc3ccccc3)o2)cc1	8.05	20 nM	
O=C(NCCN1CCCCC1)Nc1ccc(-c2nnc(CSCCOc3ccccc3)o2)cc1 [drawing 42]	8.25	14.7 nM	
c1ccc(OCCSCc2ncc(-c3ccc(OCCCN4CCCC4)cc3)o2)cc1	7.99	16.5 nM	
C(=C\c1ccc(-c2nnc(CSCCOc3ccccc3)o2)cc1)/CN1CCCC1 [drawing 38]	8.72	6 nM	
c1ccc(OCCSCc2nnc(-c3ccc(OCCCCN4CCCC4)cc3)o2)cc1 [Example 80, 2-(2-phenoxy-ethylsulfanylmethyl)-5-[4-(4-pyrrolidin-1-yl-butoxy)-phenyl]-[1,3,4]oxadiazole]			45 °C
c1ccc(OCCSCc2nnc(-c3ccc(OCCCCN4CCSCC4)cc3)o2)cc1 [Example 94, 4-(4-{4-[5-(2-phenoxy-ethylsulfanylmethyl)-[1,3,4]oxadiazol-2-yl]-phenoxy}-butyl)-thiomorpholine]			58 °C
c1ccc(OCCSCc2nnc(-c3ccc(OCCN4CCOCC4)cc3)o2)cc1 [Example 74, 4-(2-{4-[5-(2-phenoxy-ethylsulfanylmethyl)-[1,3,4]oxadiazol-2-yl]-phenoxy}-ethyl)-morpholine]			70 to 72 °C
O=C1N(CCN2CCCC2)CCN1c1ccc(-c2nnc(CSCCOc3ccccc3)o2)cc1 [Example 257, 1-{4-[5-(2-phenoxy-ethylsulfanylmethyl)-[1,3,4]oxadiazol-2-yl]-phenyl}-3-(2-pyrrolidin-1-yl-ethyl)-imidazolidin-2-one]			125 to 129 °C
c1ccc(OCCSCc2ncc(-c3ccc(OCCCN4CCCCC4)cc3)o2)cc1	7.75	15.9 nM	
c1ccc(OCCSCc2nnc(-c3ccc(OCCCCN4CCCCCC4)cc3)o2)cc1 [drawing 57]	7.42	31.3 nM	

Results, then the compound that gave them:

pKi (human MCHR1 [1])	Kb (human MCHR1 [2])	melting point	Structure (SMILES)
5.54	6890 nM		c1ccc(OCCSCc2nnc(-c3ccc(OCc4cccnc4)cc3)o2)cc1 [drawing 61]
7.79	35.4 nM		CN(C)CCCOc1ccc(-c2nnc(CSCc3cc4ccccc4o3)o2)cc1
7.65	50.6 nM		CN(C)CCCOc1ccc(-c2nnc(CSCc3ccc4ccccc4c3)o2)cc1
7.46	41.5 nM		CN(C)CCCOc1ccc(-c2coc(CSCCOc3ccccc3)n2)cc1
8.37	15 nM		CN(C)CCCOc1ccc(-c2cnc(CSCCOc3ccccc3)o2)cc1
8.43	11.6 nM		CN(C)C/C=C/c1ccc(-c2nnc(CSCCOc3ccccc3)o2)cc1
6.85	145 nM		CC(C)N(CCCOc1ccc(-c2nnc(CSCCOc3ccccc3)o2)cc1)C(C)C [drawing 60]
7.98	16.2 nM		CN(C)CCNC(=O)Nc1ccc(-c2nnc(CSCCOc3ccccc3)o2)cc1
7.88	9.4 nM		CN(C)CCOc1ccc(-c2cnc(CSCCOc3ccccc3)o2)cc1
7.84	18.1 nM		c1ccc(OCCSCc2nnc(-c3ccc(OCCCN4CCCC4)cc3)o2)cc1 [drawing 51]
7.20	52.1 nM		CC(C)N(CCCCOc1ccc(-c2nnc(CSCCOc3ccccc3)o2)cc1)C(C)C [drawing 59]
7.80	11.9 nM		CN(C)CCCOc1ccc(-c2nnc(CSCCOc3ccccc3)o2)cc1 [drawing 52]
		60 °C	c1ccc(OCCSCc2nnc(-c3ccc(OCCCN4CCC4)cc3)o2)cc1 [Example 263, 2-[4-(3-azetidin-1-yl-propoxy)-phenyl]-5-(2-phenoxy-ethylsulfanylmethyl)-[1,3,4]oxadiazole]
		92.5 to 93.5 °C	CN(C)CCCOc1ccc(-c2nnc(CSCCOc3ccc(OC(F)(F)F)cc3)o2)cc1 [Example 274, [3-(4-{5-[2-(4-trifluoromethoxy-phenoxy)-ethylsulfanylmethyl]-[1,3,4]oxadiazol-2-yl}-phenoxy)-propyl]-dimethyl-amine]
		65 °C	c1ccc(OCCSCc2nnc(-c3ccc(OCCCN4CCOCC4)cc3)o2)cc1 [Example 87, 4-(3-{4-[5-(2-phenoxy-ethylsulfanylmethyl)-[1,3,4]oxadiazol-2-yl]-phenoxy}-propyl)-morpholine]
		87 to 93 °C	CN(C)CCCNC(=O)c1ccc(-c2nnc(CSCCCCOc3ccccc3)o2)cc1 [Example 48, N-(3-dimethylaminopropyl)-4-[5-(4-phenoxybutylsulfanylmethyl)-[1,3,4]oxadiazol-2-yl]-benzamide]
8.28	13.6 nM		CN(C)CCOc1ccc(-c2nnc(CSCCOc3ccccc3)o2)cc1 [drawing 41]
		76 to 79 °C	c1ccc2oc(Cc3nnc(-c4ccc(OCCCN5CCCCC5)cc4)o3)cc2c1 [Example 270, 1-{3-[4-(5-Benzofuran-2-yl-methyl-[1,3,4]oxadiazol-2-yl)-phenoxy]-propyl}-piperidine]
7.32	139 nM		CN(C)CCCOc1ccc(-c2nnc(CSCc3cc4ccccc4s3)o2)cc1
